The values that follow come from US20120142667A1, “PYRIMIDINE DERIVATIVES AS ZAP-70 INHIBITORS” (priority 2009, published 2012).

For test [1], the system named is Calcium Ion Release in Cells. Description: calcium release assay (measurement of calcium ion release in cells). It is filed as cell-based. The following applies: calcium release assay as described in WO-A 2009/080638.
In test [2] the target is T1, ZAP-70 (Homo sapiens, UniProt P43403).
T1 construct: endogenous in cells; host or cells: cell lysate
T1 sequence (P43403 1-619): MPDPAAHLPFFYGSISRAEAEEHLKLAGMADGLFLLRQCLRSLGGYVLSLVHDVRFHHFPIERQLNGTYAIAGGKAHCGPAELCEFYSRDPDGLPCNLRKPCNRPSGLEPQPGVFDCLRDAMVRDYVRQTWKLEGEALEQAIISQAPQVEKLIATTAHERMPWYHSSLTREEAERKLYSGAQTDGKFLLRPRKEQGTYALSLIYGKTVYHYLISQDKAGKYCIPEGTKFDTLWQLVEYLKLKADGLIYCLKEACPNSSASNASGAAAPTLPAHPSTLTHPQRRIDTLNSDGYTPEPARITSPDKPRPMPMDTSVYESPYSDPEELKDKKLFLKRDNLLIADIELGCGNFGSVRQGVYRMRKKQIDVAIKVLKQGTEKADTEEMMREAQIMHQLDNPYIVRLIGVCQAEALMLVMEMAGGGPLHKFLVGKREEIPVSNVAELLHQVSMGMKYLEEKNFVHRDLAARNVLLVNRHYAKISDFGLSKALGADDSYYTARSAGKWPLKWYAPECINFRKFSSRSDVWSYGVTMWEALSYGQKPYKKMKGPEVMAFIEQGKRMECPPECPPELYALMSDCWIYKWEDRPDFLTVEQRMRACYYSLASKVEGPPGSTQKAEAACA
In words: ZAP-70 kinobeads assay. It is filed as binding. Particulars: cell lysate. The method, boiled down: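 Competition binding: compounds at various concentrations incubated with cell lysate plus affinity matrix bearing immobilized aminopyrido-pyrimidine ligand 24. ZAP-70 retained on beads eluted and quantified by specific-antibody dot blot with infrared detection.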

The structures appear in SMILES notation. pIC50: −log10 of the molar value. Structures can show the parent of a compound that is named as a salt. Where only a bound is given, the exact number is not on record here.

As to `COc1ccc(Nc2nc(Nc3cccc(OCC(C)(C)O)c3C)ncc2Cl)c(NS(C)(=O)=O)c1` [Example 95, N-(2-((5-chloro-2-((3-(2-hydroxy-2-methylpropoxy)-2-methylphenyl)amino)pyrimidin-4-yl)amino)-5-methoxyphenyl)methanesulfonamide], the pIC50 in test [1] is no less than 6.00; in test [2], no less than 7.00.
For the molecule `COc1ccc(Nc2nc(Nc3ccc(OCCO)cc3F)ncc2Cl)c(NS(C)(=O)=O)c1` [Example 55, N-(2-(5-chloro-2-(2-fluoro-4-(2-hydroxyethoxy)phenylamino)pyrimidin-4-ylamino)-5-methoxyphenyl)methanesulfonamide], the pIC50 was no less than 6.00 in test [1] and 6.00 to 7.00 in test [2].
With `COc1ccc(Nc2nc(Nc3ccc(OCCO)cc3OC)ncc2Cl)c(NS(C)(=O)=O)c1` [Example 4, N-(2-(5-chloro-2-(4-(2-hydroxyethoxy)-2-methoxyphenylamino)pyrimidin-4-ylamino)-5-methoxyphenyl)methanesulfonamide], the figures for the pIC50 in test [1] and in test [2] were no less than 6.00 and no less than 7.00, respectively.
The corresponding values for `COc1ccc(C)c(Nc2ncc(Cl)c(Nc3ccc(OC)cc3NS(C)(=O)=O)n2)c1` [Example 57, N-(2-(5-chloro-2-(5-methoxy-2-methylphenylamino)pyrimidin-4-ylamino)-5-methoxyphenyl)methanesulfonamide hydrochloride] are no less than 6.00 and 6.00 to 7.00.
Take `COc1ccc(Nc2nc(Nc3cc(OC)c(OC)cc3OC)ncc2Cl)c(NS(C)(=O)=O)c1` [Example 29, N-(2-(5-chloro-2-(2,4,5-trimethoxyphenylamino)pyrimidin-4-ylamino)-5-methoxyphenyl)methanesulfonamide]: the values for the pIC50 in test [1] and in test [2] were no less than 6.00 and 6.00 to 7.00, respectively.
For `COc1ccc(Nc2nc(Nc3cc(CCC(N)=O)ccc3OC)ncc2Cl)c(NS(C)(=O)=O)c1` [Example 113, 3-(3-(5-chloro-4-(4-methoxy-2-(methylsulfonamido)phenylamino)pyrimidin-2-ylamino)-4-methoxyphenyl)propanamide], the pIC50 in test [1] was no less than 6.00; in test [2], 6.00 to 7.00.
Consider `COc1ccc(Nc2nc(Nc3ccc(OCCO)cc3C)ncc2Cl)c(NS(C)(=O)=O)c1` [Example 73, N-(2-(5-chloro-2-(4-(2-hydroxyethoxy)-2-methylphenylamino)pyrimidin-4-ylamino)-5-methoxyphenyl)methanesulfonamide], for which the values for the pIC50 in test [1] and in test [2] were no less than 6.00 and no less than 7.00, respectively.
As to `COc1ccc(Nc2nc(Nc3cccc(OCCF)c3C)ncc2Cl)c(NS(C)(=O)=O)c1` [Example 92, N-(2-(5-chloro-2-(3-(2-fluoroethoxy)-2-methylphenylamino)pyrimidin-4-ylamino)-5-methoxyphenyl)methanesulfonamide], the pIC50 in test [1] is no less than 6.00; in test [2], 6.00 to 7.00.
As to `COc1ccc(Nc2nc(Nc3ccc(OCCN)cc3F)ncc2Cl)c(NS(C)(=O)=O)c1` [Example 69, N-(2-(2-(4-(2-aminoethoxy)-2-fluorophenylamino)-5-chloropyrimidin-4-ylamino)-5-methoxyphenyl)methanesulfonamide], the pIC50 in test [1] was no less than 6.00; in test [2] it was no less than 7.00.
Turning to `COc1ccc(Nc2nc(Nc3cnc(OCCO)cc3OC)ncc2Cl)c(NS(C)(=O)=O)c1` [Example 83, N-(2-(5-chloro-2-(6-(2-hydroxyethoxy)-4-methoxypyridin-3-ylamino)pyrimidin-4-ylamino)-5-methoxyphenyl)methanesulfonamide], the pIC50 was no less than 6.00 in test [1] and no less than 7.00 in test [2].
The corresponding values for `COc1ccc(Nc2nc(Nc3cc(CCCO)ccc3OC)ncc2Cl)c(NS(C)(=O)=O)c1` [Example 112, N-(2-(5-chloro-2-(5-(3-hydroxypropyl)-2-methoxyphenylamino)pyrimidin-4-ylamino)-5-methoxyphenyl)methanesulfonamide] are no less than 6.00 and 6.00 to 7.00.
In the case of `COc1ccc(OC)c(Nc2ncc(Cl)c(Nc3ccccc3NS(C)(=O)=O)n2)c1` [Example 16, N-(2-(5-chloro-2-(2,5-dimethoxyphenylamino)pyrimidin-4-ylamino)phenyl)methanesulfonamide hydrochloride], the pIC50 was no less than 6.00 in test [1] and 6.00 to 7.00 in test [2].
Take `COc1ccc(Nc2nc(Nc3cc(OCCO)ccc3F)ncc2Cl)c(NS(C)(=O)=O)c1` [Example 64, N-(2-(5-chloro-2-(2-fluoro-5-(2-hydroxyethoxy)phenylamino)pyrimidin-4-ylamino)-5-methoxyphenyl)methanesulfonamide]: the results for the pIC50 in test [1] and in test [2] were no less than 6.00 and 6.00 to 7.00, respectively.
In the case of `COc1ccc(Nc2nc(Nc3ccncc3OC)ncc2Cl)c(NS(C)(=O)=O)c1` [Example 76, N-(2-(5-chloro-2-(3-methoxypyridin-4-ylamino)pyrimidin-4-ylamino)-5-methoxyphenyl)methanesulfonamide], the pIC50 in test [1] was no less than 6.00; in test [2], 6.00 to 7.00.
Take `COc1ccc(Nc2nc(Nc3cccnc3C)ncc2Cl)c(NS(C)(=O)=O)c1` [Example 77, N-(2-(5-chloro-2-(2-methylpyridin-3-ylamino)pyrimidin-4-ylamino)-5-methoxyphenyl)methanesulfonamide]: the figures for the pIC50 in test [1] and in test [2] were no less than 6.00 and 6.00 to 7.00, respectively.
Turning to `COc1ccc(Nc2nc(Nc3ccc(C)nc3C)ncc2Cl)c(NS(C)(=O)=O)c1` [Example 75, N-(2-(5-chloro-2-(2,6-dimethylpyridin-3-ylamino)pyrimidin-4-ylamino)-5-methoxyphenyl)methanesulfonamide], the pIC50 in test [1] was no less than 6.00; in test [2], no less than 7.00.
Regarding `COc1ccc(Nc2nc(Nc3cc(OCCCN4CCCCC4)ccc3OC)ncc2Cl)c(NS(C)(=O)=O)c1` [Example 2, N-(2-(5-chloro-2-(2-methoxy-5-(3-(piperidin-1-yl)propoxy)phenylamino)pyrimidin-4-ylamino)-5-methoxyphenyl)methanesulfonamide], the pIC50 is no less than 6.00 in test [1] and no less than 7.00 in test [2].
In the case of `COc1ccc(Nc2nc(Nc3cc(OCCO)ccc3OC)ncc2F)c(NS(C)(=O)=O)c1` [Example 106, N-(2-(5-fluoro-2-(5-(2-hydroxyethoxy)-2-methoxyphenylamino)pyrimidin-4-ylamino)-5-methoxyphenyl)methanesulfonamide], the negative-log IC50 (pIC50) in test [1] is no less than 6.00; in test [2], 6.00 to 7.00.
`COc1ccc(Nc2nc(Nc3ccncc3F)ncc2Cl)c(NS(C)(=O)=O)c1` [Example 72, N-(2-(5-chloro-2-(3-fluoropyridin-4-ylamino)pyrimidin-4-ylamino)-5-methoxyphenyl)methanesulfonamide]: the pIC50 is no less than 6.00 in test [1] and 6.00 to 7.00 in test [2].
For `COc1ccc(Nc2nc(Nc3ccnc(C)c3C)ncc2Cl)c(NS(C)(=O)=O)c1` [Example 80, N-(2-(5-chloro-2-(2,3-dimethylpyridin-4-ylamino)pyrimidin-4-ylamino)-5-methoxyphenyl)methanesulfonamide], the pIC50 in test [1] is no less than 6.00; in test [2] it was 6.00 to 7.00.
As to `COc1ccc(Nc2nc(Nc3cnc(OCCO)cc3C)ncc2Cl)c(NS(C)(=O)=O)c1` [Example 85, N-(2-(5-chloro-2-(6-(2-hydroxyethoxy)-4-methylpyridin-3-ylamino)pyrimidin-4-ylamino)-5-methoxyphenyl)methanesulfonamide], the pIC50 in test [1] is no less than 6.00; in test [2] it was 6.00 to 7.00.
In the case of `COc1ccc(Nc2nc(Nc3cc(OC)c(OC)cc3C)ncc2Cl)c(NS(C)(=O)=O)c1` [Example 37, N-(2-(5-chloro-2-(4,5-dimethoxy-2-methylphenylamino)pyrimidin-4-ylamino)-5-methoxyphenyl)methanesulfonamide], the pIC50 is no less than 6.00 in test [1] and no less than 7.00 in test [2].
As for `COc1ccc(Nc2nc(Nc3cc(OCCO)ccc3Cl)ncc2Cl)c(NS(C)(=O)=O)c1` [Example 111, N-(2-((5-chloro-2-((2-chloro-5-(2-hydroxyethoxy)phenyl)amino)pyrimidin-4-yl)amino)-5-methoxyphenyl)methanesulfonamide], the results for the pIC50 in test [1] and in test [2] were no less than 6.00 and 6.00 to 7.00, respectively.
Turning to `COc1ccc(Nc2nc(Nc3cccc(OCC(C)O)c3C)ncc2Cl)c(NS(C)(=O)=O)c1` (stereo not shown) [Example 93, N-(2-((5-chloro-2-((3-(2-hydroxypropoxy)-2-methylphenyl)amino)pyrimidin-4-yl)amino)-5-methoxyphenyl)methanesulfonamide], the pIC50 in test [1] is no less than 6.00; in test [2] it was 6.00 to 7.00.
As to `COc1ccc(Nc2nc(Nc3cc(OCCN)ccc3OC)ncc2Cl)c(NS(C)(=O)=O)c1` [Example 67, N-(2-(2-(5-(2-aminoethoxy)-2-methoxyphenylamino)-5-chloropyrimidin-4-ylamino)-5-methoxyphenyl)methanesulfonamide hydrochloride], the results for the pIC50 in test [1] and in test [2] were no less than 6.00 and 6.00 to 7.00, respectively.
For `COc1ccc(Nc2nc(Nc3cc(OCCCO)ccc3C)ncc2Cl)c(NS(C)(=O)=O)c1` [Example 87, N-(2-(5-chloro-2-(5-(3-hydroxypropoxy)-2-methylphenylamino)pyrimidin-4-ylamino)-5-methoxyphenyl)methanesulfonamide], the pIC50 in test [1] is no less than 6.00; in test [2] it was 6.00 to 7.00.
